Assays:
Assay in all cases: relative viability (nuclei count vs DMSO), 5 days (fraction); higher = more cells survive
Bleomycin + Linsitinib = compound: CC1=C(N=C(N=C1N)[C@H](CC(=O)N)NC[C@@H](C(=O)N)N)C(=O)N[C@@H]([C@H](C2=CN=CN2)OC3C(C(C(C(O3)CO)O)O)OC4C(C(C(C(O4)CO)O)OC(=O)N)O)C(=O)N[C@H](C)[C@H]([C@H](C)C(=O)N[C@@H]([C@@H](C)O)C(=O)NCCC5=NC(=CS5)C6=NC(=CS6)C(=O)NCCC[S+](C)C)O [Bleomycin] + C[C@]1(O)C[C@@H](c2nc(-c3ccc4ccc(-c5ccccc5)nc4c3)c3c(N)nccn32)C1 [Linsitinib] (partner 1 µM); conditions: main component drawn
Method in brief: (§1)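 Medians of duplicate plates are given as relative viability. That measure is the nuclei count in treated wells divided by the count in vehicle wells. Counts were taken on 4× images of lung cancer cell lines in 1536-well plates, 5 days after pin-tool dosing the day after seeding with one drug alone or a fixed anchor-drug dose plus five library-drug doses (not always all listed) in √10 steps.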

Bleomycin + Lapatinib = compound: CC1=C(N=C(N=C1N)[C@H](CC(=O)N)NC[C@@H](C(=O)N)N)C(=O)N[C@@H]([C@H](C2=CN=CN2)OC3C(C(C(C(O3)CO)O)O)OC4C(C(C(C(O4)CO)O)OC(=O)N)O)C(=O)N[C@H](C)[C@H]([C@H](C)C(=O)N[C@@H]([C@@H](C)O)C(=O)NCCC5=NC(=CS5)C6=NC(=CS6)C(=O)NCCC[S+](C)C)O [Bleomycin] + CS(=O)(=O)CCNCc1ccc(-c2ccc3ncnc(Nc4ccc(OCc5cccc(F)c5)c(Cl)c4)c3c2)o1 [Lapatinib] (partner 2 µM); conditions: main component drawn
Method in brief: as §1

Etoposide + Trametinib = compound: COc1cc([C@@H]2c3cc4c(cc3[C@@H](O[C@@H]3O[C@@H]5CO[C@@H](C)O[C@H]5[C@H](O)[C@H]3O)[C@H]3COC(=O)[C@H]23)OCO4)cc(OC)c1O [Etoposide] + CC(=O)Nc1cccc(-n2c(=O)n(C3CC3)c(=O)c3c(Nc4ccc(I)cc4F)n(C)c(=O)c(C)c32)c1 [Trametinib] (partner 0.02 µM)
Method in brief: as §1

Etoposide + Vorinostat = compound: COc1cc([C@@H]2c3cc4c(cc3[C@@H](O[C@@H]3O[C@@H]5CO[C@@H](C)O[C@H]5[C@H](O)[C@H]3O)[C@H]3COC(=O)[C@H]23)OCO4)cc(OC)c1O [Etoposide] + O=C(CCCCCCC(=O)Nc1ccccc1)NO [Vorinostat] (partner 1 µM)
Method in brief: as §1

UMC-11
relative viability (Bleomycin + Linsitinib; first compound 0.01 µM): 0.975 | relative viability (Bleomycin + Linsitinib; first compound 0.03162 µM): 0.91 | relative viability (Bleomycin + Linsitinib; first compound 0.1 µM): 0.863 | relative viability (Bleomycin + Linsitinib; first compound 0.3162 µM): 0.647 | relative viability (Bleomycin + Linsitinib; first compound 1 µM): 0.498 | relative viability (Bleomycin + Lapatinib; first compound 0.01 µM): 0.879 | relative viability (Bleomycin + Lapatinib; first compound 0.03162 µM): 0.819 | relative viability (Bleomycin + Lapatinib; first compound 0.1 µM): 0.971 | relative viability (Bleomycin + Lapatinib; first compound 0.3162 µM): 0.737 | relative viability (Bleomycin + Lapatinib; first compound 1 µM): 0.503 | relative viability (Etoposide + Trametinib; first compound 0.01 µM): 0.711 | relative viability (Etoposide + Trametinib; first compound 0.03162 µM): 0.711 | relative viability (Etoposide + Trametinib; first compound 0.1 µM): 0.352 | relative viability (Etoposide + Trametinib; first compound 0.3162 µM): 0.258 | relative viability (Etoposide + Trametinib; first compound 1 µM): 0.292 | relative viability (Etoposide + Vorinostat; first compound 0.01 µM): 0.373 | relative viability (Etoposide + Vorinostat; first compound 0.03162 µM): 0.376 | relative viability (Etoposide + Vorinostat; first compound 0.1 µM): 0.323 | relative viability (Etoposide + Vorinostat; first compound 0.3162 µM): 0.228 | relative viability (Etoposide + Vorinostat; first compound 1 µM): 0.199

From the supplement of paper PMC10307832
